Experimental data from the supplement of paper PMC10627819.

Experiments:
[1] = test system: B. subtilis 168; experiment: fitness (endpoint OD595 vs no drug) (fraction); higher = more growth
Summary of the method: (§1)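 Each well of a 384-well plate received 30 µl of culture at OD595 0.01, or 55 µl for S. pneumoniae. TSB, LB Lennox or CY served as media at 37 °C. OD595 was taken every 30 min for 14 h and corrected by subtracting the first reading. Fitness is the optical density at stationary-phase entry divided by the robust mean of no-drug controls, capped at 1.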

[2] = test system: S. aureus Newman; experiment: as above; settings: one replicate
Summary of the method: as §1

[3] = test system: B. subtilis 168; experiment: Bliss interaction score (quartile over a dose matrix) (fitness difference); higher = more antagonism (negative = synergy)
Summary of the method: (§2)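 Growth was read as OD595 when cultures entered stationary phase, and each value was divided by the plate's robust no-drug mean and capped at 1. This normalised ratio is the fitness value, and fitness for each single drug came from the combination data. The Bliss score subtracts the expected fitness, taken as the product, from the observed fitness and is given as quartiles across technical, biological and donor/recipient replicates.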

[4] = test system: S. aureus DSM 20231; experiment: as above
Summary of the method: as §2

[5] = test system: S. aureus Newman; experiment: as above
Summary of the method: as §2

[6] = test system: S. pneumoniae D39V; experiment: as above
Summary of the method: as §2
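For Bliss interaction score (quartile over a dose matrix) in this document: first quartile when negative (synergy) and third quartile when positive (antagonism).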

CO/N=C(\C(=O)N[C@@H]1C(=O)N2C(C(=O)O)=C(COC(N)=O)CS[C@H]12)c1ccco1 [Cefuroxime] + Cc1onc(-c2ccccc2)c1C(=O)N[C@@H]1C(=O)N2[C@@H]1SC(C)(C)[C@@H]2C(=O)O [Oxacillin]
fitness, [1], one replicate
Settings | partner 0.002 µg/mL | partner 0.004 µg/mL | partner 0.0078 µg/mL | partner 0.008 µg/mL | partner 0.0155 µg/mL | partner 0.031 µg/mL | partner 0.075 µg/mL | partner 0.15 µg/mL | partner 0.3 µg/mL
first compound 0.04875 µg/mL | 0.882 | 0.858 | 0.556 | 0.979 | 0.507 | 0.507 | – | – | –
first compound 0.0975 µg/mL | 0.734 | 0.866 | 0.506 | 0.881 | 0.454 | 0.486 | – | – | –
first compound 0.195 µg/mL | 0.739 | 0.705 | 0.375 | 0.717 | 0.344 | 0.367 | 0.0418 | 0.0405 | 0.0333
first compound 0.39 µg/mL | – | – | – | – | – | – | 0.0582 | 0.0174 | 0.0294
first compound 0.78 µg/mL | – | – | – | – | – | – | 0.0387 | 0.0089 | 0.0244
first compound 1.562 µg/mL | 0.239 | 0.138 | – | 0.111 | – | – | – | – | –
first compound 3.125 µg/mL | 0.137 | 0.129 | – | 0.0905 | – | – | – | – | –
first compound 6.25 µg/mL | 0.11 | 0.1 | – | 0.0957 | – | – | – | – | –

fitness, [2]
Settings | first compound 0.04875 µg/mL | first compound 0.0975 µg/mL | first compound 0.195 µg/mL
partner 0.0156 µg/mL | 0.813 | 0.766 | 0.754
partner 0.0312 µg/mL | 0.714 | 0.671 | 0.694
partner 0.0625 µg/mL | 0.447 | 0.436 | 0.323

Settings | Bliss interaction score
[3] | -0.0556
[4] | 0.0493
[5] | -0.0271
[6] | -0.115

CO/N=C(\C(=O)N[C@@H]1C(=O)N2C(C(=O)O)=C(COC(N)=O)CS[C@H]12)c1ccco1 [Cefuroxime] + COc1c(N2C[C@@H]3CCCN[C@@H]3C2)c(F)cc2c(=O)c(C(=O)O)cn(C3CC3)c12 [Moxifloxacin]
fitness, [1], one replicate
Settings | first compound 0.04875 µg/mL | first compound 0.0975 µg/mL | first compound 0.195 µg/mL | first compound 1.562 µg/mL | first compound 3.125 µg/mL | first compound 6.25 µg/mL
partner 0.0312 µg/mL | 0.0482 | 0.0451 | – | – | – | –
partner 0.0625 µg/mL | 0.0309 | 0.0348 | – | – | – | –
partner 0.125 µg/mL | 0.0185 | 0.0123 | – | – | – | –
partner 2 µg/mL | 0.0399 | 0.0244 | 0.0298 | 0.0359 | 0.0258 | 0.0141
partner 4 µg/mL | 0.0357 | 0.0206 | 0.0189 | 0.0269 | 0.0126 | 0.0118
partner 8 µg/mL | 0.0177 | 0.0063 | 0.0088 | 0.02 | 0.0184 | 0.011

fitness
Settings | first compound 0.04875 µg/mL | first compound 0.0975 µg/mL | first compound 0.195 µg/mL | first compound 0.39 µg/mL | first compound 0.78 µg/mL
[1], partner 0.0312 µg/mL | – | – | 0.0354 | 0.0276 | 0.0247
[1], partner 0.0625 µg/mL | – | – | 0.0331 | 0.0172 | 0.0291
[1], partner 0.125 µg/mL | – | – | 0.0376 | 0.0259 | 0.0192
[2], partner 0.0075 µg/mL | 0.631 | 0.593 | 0.595 | – | –
[2], partner 0.015 µg/mL | 0.439 | 0.4 | 0.445 | – | –
[2], partner 0.03 µg/mL | 0.034 | 0.0177 | 0.0236 | – | –

Settings | Bliss interaction score
[3] | 0.0178
[4] | -0.0502
[5] | -0.14
[6] | 0.0473
